Experimental data published in US8362000B2, “Azetidinyl diamides as monoacylglycerol lipase inhibitors” (Janssen Pharmaceutica NV, priority 2009, dated 2013).
Substitutions are numbered along the chain they refer to. Where two headings read alike, the source gives them in different places.

Key:
[1] = target: T1, mutant MGL (Homo sapiens, UniProt Q99685, L169S/L176S); assay: MGL ThermoFluor assay - mutant; type: binding
T1 sequence (Q99685 1-303 L169S/L176S): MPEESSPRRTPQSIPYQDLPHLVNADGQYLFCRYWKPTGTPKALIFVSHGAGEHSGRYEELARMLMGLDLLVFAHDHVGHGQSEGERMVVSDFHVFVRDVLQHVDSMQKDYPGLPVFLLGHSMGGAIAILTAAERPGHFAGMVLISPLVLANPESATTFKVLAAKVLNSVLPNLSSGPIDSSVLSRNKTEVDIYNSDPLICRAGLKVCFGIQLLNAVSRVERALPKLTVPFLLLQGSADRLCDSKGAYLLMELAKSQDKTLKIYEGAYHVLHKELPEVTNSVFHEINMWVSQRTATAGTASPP

[2] = target: T2, purified wild type MGL (wt-MGLL 6H-11-313) (Homo sapiens, UniProt Q99685)
T2 sequence (Q99685 1-303): T1 sequence (Q99685 1-303 L169S/L176S) with S169L, S176L

[3] = ThermoFluor concentration-response, read-out: MGL mutant ThermoFluor Kd
[4] = ThermoFluor thermal stability binding assay, read-out: MGL mutant ThermoFluor Kd
[5] = ThermoFluor, compound concentration measured by qNMR, read-out: MGL mutant ThermoFluor qKd (μM) (using qNMR conc.)
[6] = compound concentration measured by qNMR, read-out: MGL mutant ThermoFluor qKd (using qNMR conc.)
[7] = ThermoFluor, compound concentration measured by qNMR, read-out: MGL mutant ThermoFluor qKd (using qNMR conc.)

SMILES	IC50 [2] [nM]	other results
O=C(c1ccc(Oc2cc(C(F)(F)F)ccn2)cc1)N1CC(N2CCN(C(=O)c3cscn3)CC2)C1 [Cpd 769]	725	Kd [1, 3]: 2 µM
CC(=O)N1CC[C@@H](c2ccccc2C(=O)N2CC(N3CCN(C(=O)c4ccccc4)CC3)C2)C1 [Cpd 1486]	> 16700	Kd [1, 4]: > 31.2 µM
O=C(c1ccc(SCc2cccc(C(F)(F)F)c2)cc1)N1CC(N2CCN(C(=O)C(F)(F)F)CC2)C1 [Cpd 974]	177	Kd [1, 6]: 1.78 µM
COc1cccc2c(C)c(C(=O)N3CC(N4CCN(C(=O)c5cscn5)CC4)C3)[nH]c12 [Cpd 840]	5160	Kd [1, 3]: 2 µM
O=C(c1ccc(-c2ccccc2)cc1)N1CCN(C2CN(C(=O)c3cscn3)C2)C2(CC2)C1 [Cpd 1286]	2420	Kd [1, 4]: 0.032 µM
O=C(c1ccc(Oc2ncc(C(F)(F)F)cc2Cl)cc1)N1CC(N2CCN(C(=O)C(F)(F)F)CC2)C1 [Cpd 802]	1720	Kd [1, 6]: 1.67 µM
N#Cc1ccc(N2CCC(C(=O)N3CC(N4CCN(C(=O)c5cscn5)CC4)C3)CC2)cc1 [Cpd 647]	12700	Kd [1, 4]: > 31.2 µM
O=C(c1nccs1)N1CCN(C2CN(C(=O)c3cn(Cc4ccccc4)c4ccccc34)C2)CC1 [Cpd 993]	1510	Kd [1, 3]: 0.333 µM
O=C(c1ccc(Oc2ccc(Br)cn2)cc1)N1CC(N2CCN(C(=O)C(F)(F)F)CC2)C1 [Cpd 872]	14000	Kd [1, 6]: 10 µM
Cc1c(C(=O)N2CC(N3CCN(C(=O)c4ccc[nH]4)CC3)C2)n(C)c2ccc(Cl)cc12 [Cpd 733]	240	Kd [1, 7]: 0.453 µM

Second part, led by results:

IC50 [2] [nM]	SMILES	other results
181	Cc1ccc2c(C(F)(F)F)c(C(=O)N3CC(N4CCN(C(=O)c5ccccc5)CC4)C3)sc2c1 [Cpd 510, 1-(1-{[6-Methyl-3-(trifluoromethyl)-1-benzothiophen-2-yl]carbonyl}azetidin-3-yl)-4-(phenylcarbonyl)piperazine]	Kd [1, 3]: 0.068 µM
> 16700	O=C(c1nc2cc(-c3cccnc3F)ccc2[nH]1)N1CC(N2CCN(C(=O)c3nccs3)CC2)C1 [Cpd 1476]	Kd [1, 5]: 7.21 µM
129	CC1CN(C(=O)c2nccs2)CCN1C1CN(C(=O)c2ccc(Cc3ccccc3)cc2)C1 (centres unmarked) [Cpd 47, 1-{1-[(4-Benzylphenyl)carbonyl]azetidin-3-yl}-2-methyl-4-(1,3-thiazol-2-ylcarbonyl)piperazine]	Kd [1, 3]: 0.0909 µM
< 5	O=C(c1ccc2c(cnn2Cc2cccc(C(F)(F)F)c2)c1)N1CC(N2CCN(C(=O)c3nccs3)CC2)C1 [Cpd 1038, 5-({3-[4-(1,3-Thiazol-2-ylcarbonyl)piperazin-1-yl]azetidin-1-yl}carbonyl)-1-[3-(trifluoromethyl)benzyl]-1H-indazole]	Kd [1, 6]: 0.002 µM
583	O=C(c1ccc2c(c1)ncn2CC(F)(F)F)N1CC(N2CCN(C(=O)c3nccs3)CC2)C1 [Cpd 761]	Kd [1, 6]: 0.092 µM
206	O=C(c1cc2cc(-c3ccc(F)cc3)cnc2o1)N1CC(N2CCN(C(=O)c3nccs3)CC2)C1 [Cpd 1213]	Kd [1, 5]: 0.765 µM
1230	Cc1cc(C(=O)N2CC(N3CCN(C(=O)c4nccs4)CC3)C2)c(C)n1CC(F)(F)F [Cpd 788]	Kd [1, 7]: 1.98 µM
89	Cc1cc(-n2ccc3cc(C(=O)N4CC(N5CCN(C(=O)c6nccs6)CC5)C4)ccc32)ccn1 [Cpd 1410, 1-(2-Methylpyridin-4-yl)-5-({3-[4-(1,3-thiazol-2-ylcarbonyl)piperazin-1-yl]azetidin-1-yl}carbonyl)-1H-indole]	Kd [1, 7]: 0.014 µM
402	Cc1c(C(=O)N2CC(N3CCN(C(=O)c4nccs4)CC3)C2)oc2ccc(F)cc12 [Cpd 751]	Kd [1, 3]: 1.32 µM
166	O=C(c1cc2ccc(-c3ccc(F)cc3)cc2[nH]1)N1CC(N2CCN(C(=O)c3nccs3)CC2)C1 [Cpd 1204]	Kd [1, 5]: 0.249 µM
< 5	O=C(c1ccc(OCc2cccc(Cl)c2)cc1)N1CC(N2CCN(C(=O)c3nccs3)CC2)C1 [Cpd 957]	Kd [1, 4]: 0.008 µM
> 16700	C[C@@H]1CN(C(=O)c2nccs2)C[C@H](C)N1C1CN(C(=O)c2cc3ccc(C(F)(F)F)cc3s2)C1 [Cpd 953]	Kd [1, 7]: > 26.9 µM
